Experimental findings from US8853258B2, “C-linked hydroxamic acid derivatives useful as antibacterial agents” (Pfizer Inc., priority 2009, dated 2014) are described below.

≈ marks a conversion by molar mass, not a printed value. Read-outs that look alike come from different tables or passages of the source. Some results are limits rather than exact numbers.

Data set [1] relates to Pseudomonas aeruginosa UI-18: Wild-type (PA-7). The experiment in a line: MIC determination (CLSI), PA-7. It counts as cell-based. To be noted: Pseudomonas aeruginosa. The procedure, abridged: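 MIC by dilution method per CLSI M7-A7 and M100-S18 guidelines. Strain: wild-type Pseudomonas aeruginosa UI-18.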
For data set [2], the system named is Escherichia coli EC-1: VOGEL, mouse virulent. The experiment in a line: MIC determination (CLSI), EC-1. To be noted: Escherichia coli. In kind it is cell-based. In short, it runs like this:
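E. coli Vogel, a mouse-virulent strain (EC-1), was tested. MICs were set by dilution susceptibility testing per CLSI standards M7-A7/M100-S18.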

Data set [3] has as its system Acinetobacter baumanii/haemolyticus: Multidrug-resistant clinical isolate (AB-3167). The data set can be described thus: MIC determination (CLSI), AB-3167. To be noted: Acinetobacter baumannii. In kind it is cell-based. The procedure, abridged:
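Multidrug-resistant clinical isolate AB-3167 (A. baumannii/haemolyticus) tested for minimum inhibitory concentration following CLSI dilution susceptibility standards M7-A7 and M100-S18.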

Data set [4] has as its system Klebsiella pneumoniae: Ciprofloxacin-resistant isolate, ESBL, clinical isolate (KP-3700). The data set can be described thus: MIC determination (CLSI), KP-3700. In kind it is cell-based. The procedure, abridged: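 MIC measured by broth dilution according to CLSI M7-A7 and M100-S18 standards. Test organism was a ciprofloxacin-resistant, ESBL-expressing clinical isolate.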

Data set [5] addresses Pseudomonas aeruginosa LpxC enzyme (Pseudomonas aeruginosa (strain ATCC 15692 / DSM 22644 / CIP 104116 / JCM 14847 / LMG 12228 / 1C / PRS 101 / PAO1), UniProt P47205). The data set can be described thus: IC50 Assay, LpxC Enzyme from P. aeruginosa (PA LpxC Enzyme IC50). In kind it is biochemical. To be noted: Table 1; read-out: PA LpxC enzyeme IC50. How it is done: In order to assess the compounds biological activity, selected in-vitro assays were conducted on selected compounds. One of the assays measured the compounds ability to disrupt the synthesis of lipopolysaccharide, LPS, which is a component of the outer membrane of Gram-negative bacteria. Disruption of this synthesis is lethal to the bacteria. The assay determined the compound's ability to inhibit LpxC, which is the first enzyme in the biosynthetic pathway for LPS (measured as IC50). Additionally, MICs (minimal inhibitory concentrations) were determined for several bacteria. The specific protocols are described below:
A) IC50 Assay, LpxC Enzyme from P. aeruginosa (Labled as PA LpxC Enzyme IC50
At the end of 1 hour, 5 ul of 1N HCl was added to stop the enzyme reaction; the plates were centrifuged, and then processed with the BioTrove Rapidfire HTMS Mass Spectrometry System. A no-enzyme control was used in calculating the IC50 values from the percent conversion values.

For the compound `CC(CCc1ccc(-c2ccc([N+](=O)[O-])cc2)cc1)(C(=O)NO)S(C)(=O)=O` (racemic) [Example 5, (+/−)-N-hydroxy-2-methyl-2-(methylsulfonyl)-4-(4′-nitrobiphenyl-4-yl)butanamide], the MIC in data set [1] (Table 1, MIC, read-out: PA-7 (MIC)) came out at 0.5 µg/mL (≈ 1.27 µM); in data set [2] (read-out: EC-1: (MIC)), 0.5 µg/mL (≈ 1.27 µM); in data set [3] (Table 1, MIC, read-out: AB-3167 (MIC)) it was 32 µg/mL (≈ 81.5 µM). Besides, in data set [4], the “KP-3700 MIC” value was 1 µg/mL. Also, the IC50 in data set [5] stood at 0.12 nM.
`Cc1ccc(COc2ccc(CCC(C)(C(=O)NO)S(C)(=O)=O)cc2)cc1` (stereo not shown) [Example 263, N-hydroxy-2-methyl-4-{4-[(4-methylbenzyl)oxy]phenyl}-2-(methylsulfonyl)butanamide]: the MIC in data set [1] (Table 3, read-out: PA-7 MIC) is 4 µg/mL (≈ 10.2 µM); in data set [2] (read-out: EC-1 MIC) it was 2 µg/mL (≈ 5.11 µM); in data set [3] (Table 3, read-out: AB-3167 MIC), 16 µg/mL (≈ 40.9 µM). Besides, in data set [4], the “KP-3700 MIC” value stood at 8 µg/mL.
For `CC(CCc1ccc(OCCCc2ccccc2)cc1)(C(=O)NO)S(C)(=O)=O` (stereo not shown) [Example 264, N-hydroxy-2-methyl-2-(methylsulfonyl)-4-[4-(3-phenylpropoxy)phenyl]butanamide] the same measures were 32 µg/mL (≈ 78.9 µM), 4 µg/mL (≈ 9.86 µM), 8 µg/mL (≈ 19.7 µM) and 16 µg/mL.
For `CC(CCc1ccc(OCC2CCC2)cc1)(C(=O)NO)S(C)(=O)=O` (stereo not shown) [Example 266, 4-[4-(cyclobutylmethoxy)phenyl]-N-hydroxy-2-methyl-2-(methylsulfonyl)butanamide] the same measures were 16 µg/mL (≈ 45 µM), 32 µg/mL (≈ 90 µM), 32 µg/mL (≈ 90 µM) and “≧64 mg/L”.
`CC(C)CCCOc1ccc(CCC(C)(C(=O)NO)S(C)(=O)=O)cc1` (stereo not shown) [Example 267, N-hydroxy-2-methyl-4-{4-[(4-methylpentyl)oxy]phenyl}-2-(methylsulfonyl)butanamide]: the MIC in data set [1] (Table 3, read-out: PA-7 MIC) stood at 16 µg/mL (≈ 43.1 µM); in data set [2] (read-out: EC-1 MIC), 8 µg/mL (≈ 21.5 µM); in data set [3] (Table 3, read-out: AB-3167 MIC) it was 8 µg/mL (≈ 21.5 µM). Besides, in data set [4], the “KP-3700 MIC” value was “≧64 mg/L”.
As to `CC(CCc1ccc(OCc2cccc(F)c2)cc1)(C(=O)NO)S(C)(=O)=O` (stereo not shown) [Example 268, 4-{4-[(3-fluorobenzyl)oxy]phenyl}-N-hydroxy-2-methyl-2-(methylsulfonyl)butanamide], the MIC in data set [1] (Table 3, read-out: PA-7 MIC) stood at 8 µg/mL (≈ 20.2 µM); in data set [2] (read-out: EC-1 MIC), 2 µg/mL (≈ 5.06 µM); in data set [3] (Table 3, read-out: AB-3167 MIC) it was 16 µg/mL (≈ 40.5 µM). Moreover, the “KP-3700 MIC” value in data set [4] was found to be 8 µg/mL.
`Cc1ccc(-c2noc(COc3ccc(CCC(C)(C(=O)NO)S(C)(=O)=O)cc3)n2)cc1` (stereo not shown) [Example 269, N-hydroxy-2-methyl-4-(4-{[3-(4-methylphenyl)-1,2,4-oxadiazol-5-yl]methoxy}phenyl)-2-(methylsulfonyl)butanamide]: the MIC was at least 64 µg/mL in data set [1] (Table 3, read-out: PA-7 MIC); 4 µg/mL (≈ 8.7 µM) in data set [2] (read-out: EC-1 MIC); at least 64 µg/mL in data set [3] (Table 3, read-out: AB-3167 MIC). Besides, the “KP-3700 MIC” value in data set [4] is recorded as “≧64 mg/L”.
For `Cc1ccc(COc2ccc(CCC(C)(C(=O)NO)S(C)(=O)=O)cc2)cn1` (stereo not shown) [Example 270, N-hydroxy-2-methyl-4-{4-[(6-methylpyridin-3-yl)methoxy]phenyl}-2-(methylsulfonyl)butanamide], the MIC in data set [1] (Table 3, read-out: PA-7 MIC) was 32 µg/mL (≈ 81.5 µM); in data set [2] (read-out: EC-1 MIC), at least 64 µg/mL; in data set [3] (Table 3, read-out: AB-3167 MIC), at least 64 µg/mL. Moreover, the “KP-3700 MIC” value in data set [4] is listed as “≧64 mg/L”.
With `CC(CCc1ccc(OCCc2ccccc2)cc1)(C(=O)NO)S(C)(=O)=O` (stereo not shown) [Example 271, N-hydroxy-2-methyl-2-(methylsulfonyl)-4-[4-(2-phenylethoxy)phenyl]butanamide], the MIC in data set [1] (Table 3, read-out: PA-7 MIC) was at least 64 µg/mL; in data set [2] (read-out: EC-1 MIC) it was 16 µg/mL (≈ 40.9 µM); in data set [3] (Table 3, read-out: AB-3167 MIC), 32 µg/mL (≈ 81.7 µM). Further, in data set [4], the “KP-3700 MIC” value was “≧64 mg/L”.
The like results for `CC(CCc1ccc(OCc2nc(C3CCCC3)no2)cc1)(C(=O)NO)S(C)(=O)=O` (stereo not shown) [Example 273, 4-{4-[(3-cyclopentyl-1,2,4-oxadiazol-5-yl)methoxy]phenyl}-N-hydroxy-2-methyl-2-(methylsulfonyl)butanamide] were, in that order, at least 64 µg/mL, 16 µg/mL (≈ 36.6 µM), at least 64 µg/mL and 32 µg/mL.
Take `CC(CCc1ccc(OCc2cccc(OC(F)(F)F)c2)cc1)(C(=O)NO)S(C)(=O)=O` (stereo not shown) [Example 274, N-hydroxy-2-methyl-2-(methylsulfonyl)-4-(4-{[3-(trifluoromethoxy)benzyl]oxy}phenyl)butanamide]: the minimal inhibitory concentration (MIC) in data set [1] (Table 3, read-out: PA-7 MIC) was 16 µg/mL (≈ 34.7 µM); in data set [2] (read-out: EC-1 MIC), 4 µg/mL (≈ 8.67 µM); in data set [3] (Table 3, read-out: AB-3167 MIC) it was 16 µg/mL (≈ 34.7 µM). Also, in data set [4], the “KP-3700 MIC” value was determined as 16 µg/mL.
`CC(CCc1ccc(OCc2cc(C#N)ccc2F)cc1)(C(=O)NO)S(C)(=O)=O` (stereo not shown) [Example 275, 4-{4-[(5-cyano-2-fluorobenzyl)oxy]phenyl}-N-hydroxy-2-methyl-2-(methylsulfonyl)butanamide]: the MIC was 32 µg/mL (≈ 76.1 µM) in data set [1] (Table 3, read-out: PA-7 MIC); at least 64 µg/mL in data set [2] (read-out: EC-1 MIC); at least 64 µg/mL in data set [3] (Table 3, read-out: AB-3167 MIC). Moreover, the “KP-3700 MIC” value in data set [4] is recorded as “≧64 mg/L”.
Take `CC(CCc1ccc(OCc2c(F)cccc2Cl)cc1)(C(=O)NO)S(C)(=O)=O` (stereo not shown) [Example 276, 4-{4-[(2-chloro-6-fluorobenzyl)oxy]phenyl}-N-hydroxy-2-methyl-2-(methylsulfonyl)butanamide]: the MIC stood at 4 µg/mL (≈ 9.3 µM) in data set [1] (Table 3, read-out: PA-7 MIC); 4 µg/mL (≈ 9.3 µM) in data set [2] (read-out: EC-1 MIC); 32 µg/mL (≈ 74.4 µM) in data set [3] (Table 3, read-out: AB-3167 MIC). The “KP-3700 MIC” value in data set [4] was determined as 16 µg/mL.
Take `CC(CCc1ccc(OCc2nc3ccccc3s2)cc1)(C(=O)NO)S(C)(=O)=O` (stereo not shown) [Example 277, 4-[4-(1,3-benzothiazol-2-ylmethoxy)phenyl]-N-hydroxy-2-methyl-2-(methylsulfonyl)butanamide]: the MIC in data set [1] (Table 3, read-out: PA-7 MIC) was 32 µg/mL (≈ 73.6 µM); in data set [2] (read-out: EC-1 MIC), 4 µg/mL (≈ 9.21 µM); in data set [3] (Table 3, read-out: AB-3167 MIC), at least 64 µg/mL. Also, in data set [4], the “KP-3700 MIC” value amounted to 16 µg/mL.
For `CC(CCc1ccc(OCc2ccc3ccccc3n2)cc1)(C(=O)NO)S(C)(=O)=O` (stereo not shown) [Example 279, N-hydroxy-2-methyl-2-(methylsulfonyl)-4-[4-(quinolin-2-ylmethoxy)phenyl]butanamide] the same measures were at least 64 µg/mL, 16 µg/mL (≈ 37.3 µM), at least 64 µg/mL and “≧64 mg/L”.
For `CC(CCc1ccc(OCCc2ccncc2)cc1)(C(=O)NO)S(C)(=O)=O` (stereo not shown) [Example 311, N-hydroxy-2-methyl-2-(methylsulfonyl)-4-[4-(2-pyridin-4-ylethoxy)phenyl]butanamide] the same measures were 32 µg/mL (≈ 81.5 µM), at least 64 µg/mL, at least 64 µg/mL and “≧64 mg/L”.
The like results for `CC(CCc1ccc(OCCC2CCCC2)cc1)(C(=O)NO)S(C)(=O)=O` (stereo not shown) [Example 312, 4-[4-(2-cyclopentylethoxy)phenyl]-N-hydroxy-2-methyl-2-(methylsulfonyl)butanamide] were, in that order, 8 µg/mL (≈ 20.9 µM), 8 µg/mL (≈ 20.9 µM), 2 µg/mL (≈ 5.21 µM) and “≧64 mg/L”.
As for `CC(CCc1ccc(OCCCC2CCCC2)cc1)(C(=O)NO)S(C)(=O)=O` (stereo not shown) [Example 313, 4-[4-(3-cyclopentylpropoxy)phenyl]-N-hydroxy-2-methyl-2-(methylsulfonyl)butanamide], the MIC in data set [1] (Table 3, read-out: PA-7 MIC) stood at 16 µg/mL (≈ 40.2 µM); in data set [2] (read-out: EC-1 MIC) it was 4 µg/mL (≈ 10.1 µM); in data set [3] (Table 3, read-out: AB-3167 MIC), 2 µg/mL (≈ 5.03 µM). In data set [4], the “KP-3700 MIC” value turned out to be 16 µg/mL.
For `CC(CCc1ccc(OCCC2CCCCC2)cc1)(C(=O)NO)S(C)(=O)=O` (stereo not shown) [Example 314, 4-[4-(2-cyclohexylethoxy)phenyl]-N-hydroxy-2-methyl-2-(methylsulfonyl)butanamide], the MIC stood at 16 µg/mL (≈ 40.2 µM) in data set [1] (Table 3, read-out: PA-7 MIC); 16 µg/mL (≈ 40.2 µM) in data set [2] (read-out: EC-1 MIC); 2 µg/mL (≈ 5.03 µM) in data set [3] (Table 3, read-out: AB-3167 MIC). Further, the “KP-3700 MIC” value in data set [4] is listed as “≧64 mg/L”.
As to `CC(CCc1ccc(OCCCC2CCCCC2)cc1)(C(=O)NO)S(C)(=O)=O` (stereo not shown) [Example 315, 4-[4-(3-cyclohexylpropoxy)phenyl]-N-hydroxy-2-methyl-2-(methylsulfonyl)butanamide], the MIC in data set [1] (Table 3, read-out: PA-7 MIC) worked out at 32 µg/mL (≈ 77.8 µM); in data set [2] (read-out: EC-1 MIC), 4 µg/mL (≈ 9.72 µM); in data set [3] (Table 3, read-out: AB-3167 MIC), 2 µg/mL (≈ 4.86 µM). Further, the “KP-3700 MIC” value in data set [4] turned out to be 16 µg/mL.
The like results for `CC(CCc1ccc(OCc2ccncc2)cc1)(C(=O)NO)S(C)(=O)=O` (stereo not shown) [Example 316, N-hydroxy-2-methyl-2-(methylsulfonyl)-4-[4-(pyridin-4-ylmethoxy)phenyl]butanamide] were, in that order, 8 µg/mL (≈ 21.1 µM), 32 µg/mL (≈ 84.6 µM), 16 µg/mL (≈ 42.3 µM) and “≧64 mg/L”.
